The test system of data set [1] is MCF-7 (breast adenocarcinoma). Nature of the data set: MTT cell proliferation assay, MCF-7. Format: cell-based. Conditions: Homo sapiens, MCF7, MCF-7, 72 h of exposition, read-out: Anti-proliferative activity IC50, MCF-7. The procedure, abridged: (§1)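 Normal human RPMI 1788 B cells accompany the cancer panel to flag general cytotoxicity. Viability is quantified with MTT and summarised as IC50.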
(Tetrazolium assays rely on reduction of a dye to a coloured formazan, in cell work by metabolically active cells.)

The subject of data set [2] is A549 (lung carcinoma). The data set is described as follows: MTT cell proliferation assay, A549. Format: cell-based. Conditions: Homo sapiens, A549, 72 h of exposition, read-out: Anti-proliferative activity IC50, A549. The method in brief: as §1
The test system of data set [3] is K562 (chronic myelogenous leukemia). The data set is described as follows: MTT cell proliferation assay, K562. Conditions: Homo sapiens, K562, 72 h of exposition, read-out: Anti-proliferative activity IC50, K562. Format: cell-based. The procedure, abridged:
as §1

The subject of data set [4] is HL-60 (promyelocytic leukemia). Nature of the data set: MTT cell proliferation assay, HL-60. Format: cell-based. The note with it: Homo sapiens, HL-60, 72 h of exposition, read-out: Anti-proliferative activity IC50, HL-60. The method in brief:
as §1

Data set [5] relates to HepG2 (human liver cancer). The data set is described as follows: MTT cell proliferation assay, HepG2. Format: cell-based. Conditions: Homo sapiens, HepG2, 72 h, HepG2, 72 h of exposition, read-out: Anti-proliferative activity IC50, HepG2. The procedure, abridged:
as §1

The target in data set [6] is T1, PDGFRα (Homo sapiens, UniProt P16234).
T1 construct: purchased Promega
T1 sequence (P16234 24-1089): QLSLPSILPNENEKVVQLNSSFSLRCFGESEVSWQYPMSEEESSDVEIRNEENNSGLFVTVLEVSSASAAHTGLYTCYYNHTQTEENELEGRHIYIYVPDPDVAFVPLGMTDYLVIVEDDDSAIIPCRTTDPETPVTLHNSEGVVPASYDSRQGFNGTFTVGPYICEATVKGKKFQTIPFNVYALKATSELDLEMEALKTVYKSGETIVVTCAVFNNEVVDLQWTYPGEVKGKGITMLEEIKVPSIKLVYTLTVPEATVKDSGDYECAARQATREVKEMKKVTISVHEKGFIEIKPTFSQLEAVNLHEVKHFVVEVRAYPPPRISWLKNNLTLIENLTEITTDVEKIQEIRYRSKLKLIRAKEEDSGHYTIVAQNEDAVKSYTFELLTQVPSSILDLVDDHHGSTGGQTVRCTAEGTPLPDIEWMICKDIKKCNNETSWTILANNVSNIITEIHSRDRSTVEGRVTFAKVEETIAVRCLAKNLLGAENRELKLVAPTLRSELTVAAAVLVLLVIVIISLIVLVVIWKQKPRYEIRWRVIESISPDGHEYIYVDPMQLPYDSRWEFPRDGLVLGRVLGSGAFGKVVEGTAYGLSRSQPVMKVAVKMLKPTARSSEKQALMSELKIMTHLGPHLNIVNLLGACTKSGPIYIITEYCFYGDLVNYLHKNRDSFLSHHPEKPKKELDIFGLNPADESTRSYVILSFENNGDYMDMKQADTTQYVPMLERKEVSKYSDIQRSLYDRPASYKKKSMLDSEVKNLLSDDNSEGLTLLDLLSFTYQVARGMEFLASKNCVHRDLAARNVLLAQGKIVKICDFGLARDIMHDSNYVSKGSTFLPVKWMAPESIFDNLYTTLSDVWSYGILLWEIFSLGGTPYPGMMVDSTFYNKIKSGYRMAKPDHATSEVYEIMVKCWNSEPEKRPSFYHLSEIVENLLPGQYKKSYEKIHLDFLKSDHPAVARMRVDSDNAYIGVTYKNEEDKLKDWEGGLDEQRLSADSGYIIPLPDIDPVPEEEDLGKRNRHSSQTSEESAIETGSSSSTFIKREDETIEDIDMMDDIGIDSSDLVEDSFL
Nature of the data set: ADP-Glo kinase assay, PDGFRα. Format: biochemical. The procedure, abridged: (§2)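 Selectivity profiling employed a commercial tyrosine kinase panel coupled to ADP-Glo detection, following the supplied technical manual, with activity measured by luminescence.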
Background: In ADP-Glo the light output rises with the ADP produced.

Data set [7] addresses T2, IGF1R (insulin-like growth factor 1 receptor) (Homo sapiens, UniProt P08069).
T2 construct: purchased Promega
Nature of the data set: ADP-Glo kinase assay, IGF1R. Format: biochemical. The procedure, abridged: as §2

Data set [8] deals with K562 cell line. Nature of the data set: ROS determination (DCFH-DA, flow cytometry). Conditions: 48 h. Format: cell-based. In general terms: A flow cytometer gives signals particle by particle.
Description: The redox status was assessed using the K562 cell line. […] Then, the cells were washed to remove the 2′,7′-dichlorodihydrofluorescein diacetate by centrifugation at 1000 rpm for 5 min. The measurements were conducted using a Cytomics FC500 Beckman Coulter flow cytometer (FL1 channel for DCF).
The target of data set [9] is T3, PDGFRβ (Homo sapiens, UniProt P09619).
T3 construct: purchased Promega
Nature of the data set: ADP-Glo kinase assay, PDGFRβ. Format: biochemical. The procedure, abridged: as §2

The target in data set [10] is T4, HER4 (Homo sapiens, UniProt Q15303).
T4 construct: purchased Promega
Nature of the data set: ADP-Glo kinase assay, HER4. Format: biochemical. The method in brief: as §2

For data set [11], the system named is OKP-GS (renal cell carcinoma). The data set is described as follows: MTT cell proliferation assay, OKP-GS. Format: cell-based. The note with it: 72 h of exposition, read-out: Anti-proliferative activity IC50, OKP-GS. The procedure, abridged: as §1
Data set [12] deals with K562 cells. The data set is described as follows: Cell cycle analysis (propidium iodide, flow cytometry). Format: cell-based. The note with it: 48 h. The method in brief:
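K562 cells (400,000/well) were exposed in duplicate for 48 h to 1, 5 and 10 μM compound. Cell-cycle phase distribution was then determined by propidium iodide staining and flow cytometry.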

The target of data set [13] is T5, InsR (insulin receptor) (Homo sapiens, UniProt P06213).
T5 construct: purchased Promega
T5 sequence (P06213 28-1382): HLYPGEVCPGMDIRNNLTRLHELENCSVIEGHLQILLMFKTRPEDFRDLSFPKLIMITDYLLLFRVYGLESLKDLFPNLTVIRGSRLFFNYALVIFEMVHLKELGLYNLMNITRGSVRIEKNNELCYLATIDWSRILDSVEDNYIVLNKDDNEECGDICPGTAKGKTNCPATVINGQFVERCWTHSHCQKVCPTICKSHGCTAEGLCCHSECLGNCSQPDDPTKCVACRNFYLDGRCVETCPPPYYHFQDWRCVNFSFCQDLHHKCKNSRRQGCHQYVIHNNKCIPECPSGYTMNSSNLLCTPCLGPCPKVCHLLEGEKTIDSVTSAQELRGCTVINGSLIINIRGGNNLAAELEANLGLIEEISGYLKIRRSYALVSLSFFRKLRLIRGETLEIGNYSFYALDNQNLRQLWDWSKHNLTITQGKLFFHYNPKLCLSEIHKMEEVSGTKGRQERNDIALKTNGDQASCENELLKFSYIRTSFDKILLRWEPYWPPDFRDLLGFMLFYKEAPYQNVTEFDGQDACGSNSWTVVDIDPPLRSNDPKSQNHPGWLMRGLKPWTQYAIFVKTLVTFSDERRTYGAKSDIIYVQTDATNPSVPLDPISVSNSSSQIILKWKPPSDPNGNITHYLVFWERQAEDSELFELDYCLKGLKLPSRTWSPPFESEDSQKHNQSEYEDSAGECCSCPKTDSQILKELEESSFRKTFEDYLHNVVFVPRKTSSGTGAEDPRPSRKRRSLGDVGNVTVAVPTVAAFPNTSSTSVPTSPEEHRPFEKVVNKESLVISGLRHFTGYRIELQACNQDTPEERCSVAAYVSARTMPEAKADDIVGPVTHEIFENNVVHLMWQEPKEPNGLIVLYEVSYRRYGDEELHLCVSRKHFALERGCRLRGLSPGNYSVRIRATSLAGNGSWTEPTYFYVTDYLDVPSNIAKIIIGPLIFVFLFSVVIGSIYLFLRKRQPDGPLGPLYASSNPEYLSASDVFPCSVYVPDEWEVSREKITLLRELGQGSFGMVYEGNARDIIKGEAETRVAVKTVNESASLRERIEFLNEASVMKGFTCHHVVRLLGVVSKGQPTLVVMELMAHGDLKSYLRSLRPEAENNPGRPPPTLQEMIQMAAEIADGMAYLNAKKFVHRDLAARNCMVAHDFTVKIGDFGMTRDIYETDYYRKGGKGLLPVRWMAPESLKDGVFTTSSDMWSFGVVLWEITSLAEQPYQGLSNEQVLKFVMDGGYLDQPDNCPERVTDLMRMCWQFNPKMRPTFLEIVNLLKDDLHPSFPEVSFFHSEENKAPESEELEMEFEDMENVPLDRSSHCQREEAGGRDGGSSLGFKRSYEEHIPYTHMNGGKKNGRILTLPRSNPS
Nature of the data set: ADP-Glo kinase assay, InsR. Format: biochemical. The method in brief: as §2

Data set [14] concerns RPMI 1788 cells (B lymphocyte, human). The data set is described as follows: MTT cell proliferation assay, normal RPMI 1788 cells. Format: cell-based. Conditions: normal human lymphoblastoid cells RPMI 1788, 72 h of exposition, read-out: Anti-proliferative activity IC50, RPMI 1788. The method in brief: as §1
In data set [15] the test system is cancer cell lines (K562, HL-60, MCF-7, HepG2, A549, OKP-GS). The data set is described as follows: MTT cell proliferation assay, statements over the whole cell line panel. Format: cell-based. The note with it: statement over the cell line panel, studied concentration range up to 50 µM. On the procedure: Tests to determine the effects of the synthesized compounds on cell viability and the half-maximal inhibitory concentration (IC50) were performed using the MTT assay, as described in our prior work.
The target compounds 5, 6, 8–12, 14, 15, 17–22 and 24–26 were tested for antiproliferative activity against six cancer cell lines: K562 (chronic myelogenous leukemia), HL-60 (promyelocytic leukemia), MCF-7 (breast adenocarcinoma), HepG2 (human liver cancer), A549 (lung carcinoma) and OKP-GS (renal cell carcinoma). The RPMI 1788 cells (B lymphocyte, human) were used as a control to evaluate the system toxicity of the studied compounds to normal cells. Sorafenib, nilotinib and lapatinib were utilized as reference standards for comparison.

Data set [16] has as its target T6, HER2 (Homo sapiens, UniProt P04626).
T6 construct: purchased Promega
The data set is described as follows: ADP-Glo kinase assay, HER2. Format: biochemical. The method in brief: as §2

In data set [17] the target is T7, Aurora A (Homo sapiens, UniProt O14965).
T7 construct: purchased Promega
T7 sequence (O14965 1-403): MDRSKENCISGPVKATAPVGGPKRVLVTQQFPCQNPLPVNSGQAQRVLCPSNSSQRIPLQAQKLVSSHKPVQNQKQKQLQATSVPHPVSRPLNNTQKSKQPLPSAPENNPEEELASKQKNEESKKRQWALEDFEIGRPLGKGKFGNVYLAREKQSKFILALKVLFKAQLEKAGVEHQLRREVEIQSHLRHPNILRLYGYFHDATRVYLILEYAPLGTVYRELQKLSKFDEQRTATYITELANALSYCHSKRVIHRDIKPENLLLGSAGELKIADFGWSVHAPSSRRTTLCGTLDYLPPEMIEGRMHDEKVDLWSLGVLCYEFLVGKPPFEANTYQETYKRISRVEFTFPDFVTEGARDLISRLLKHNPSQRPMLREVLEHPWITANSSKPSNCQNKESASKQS
The data set is described as follows: ADP-Glo kinase assay, Aurora A. Format: biochemical. The procedure, abridged: (§3)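 Inhibition measured by ADP-Glo luminescence using the Kinase Selectivity Profiling System TK-1 (tyrosine kinases) and Other/CK-1 (serine/threonine kinases), run per the kit manual.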

Data set [18] deals with T8, KDR (VEGFR-2) (Homo sapiens, UniProt P35968).
T8 construct: purchased Promega
The data set is described as follows: ADP-Glo kinase assay, KDR. Format: biochemical.
Excerpt: (§4) The selectivity of the potential kinase inhibitor against a specific protein kinase or a specific family of kinases was investigated using the Kinase Selectivity Profiling System TK-1, Other/CK-1 and ADP-Glo™ Kinase assay kit (Promega, Madison, WI, USA).

For data set [19], the target named is T9, Aurora B (Homo sapiens, UniProt Q96GD4).
T9 construct: purchased Promega
The data set is described as follows: ADP-Glo kinase assay, Aurora B. Format: biochemical. The method in brief: as §3

The target of data set [20] is T10, EGFR (Homo sapiens, UniProt P00533).
T10 construct: purchased Promega
Nature of the data set: ADP-Glo kinase assay, EGFR. Format: biochemical.
Excerpt: as §4

SMILES strings stand for the structures. Entries after “also recorded” stand apart in the source; their conditions may differ.

The IC50 is the midpoint of a concentration-inhibition curve. In general, inhibition refers to the share of the control response that was lost under treatment. Read a low inhibition as a response near the control. One may read the melting point as the temperature of the solid-liquid transition.

T2 sequence (P08069 31-1367): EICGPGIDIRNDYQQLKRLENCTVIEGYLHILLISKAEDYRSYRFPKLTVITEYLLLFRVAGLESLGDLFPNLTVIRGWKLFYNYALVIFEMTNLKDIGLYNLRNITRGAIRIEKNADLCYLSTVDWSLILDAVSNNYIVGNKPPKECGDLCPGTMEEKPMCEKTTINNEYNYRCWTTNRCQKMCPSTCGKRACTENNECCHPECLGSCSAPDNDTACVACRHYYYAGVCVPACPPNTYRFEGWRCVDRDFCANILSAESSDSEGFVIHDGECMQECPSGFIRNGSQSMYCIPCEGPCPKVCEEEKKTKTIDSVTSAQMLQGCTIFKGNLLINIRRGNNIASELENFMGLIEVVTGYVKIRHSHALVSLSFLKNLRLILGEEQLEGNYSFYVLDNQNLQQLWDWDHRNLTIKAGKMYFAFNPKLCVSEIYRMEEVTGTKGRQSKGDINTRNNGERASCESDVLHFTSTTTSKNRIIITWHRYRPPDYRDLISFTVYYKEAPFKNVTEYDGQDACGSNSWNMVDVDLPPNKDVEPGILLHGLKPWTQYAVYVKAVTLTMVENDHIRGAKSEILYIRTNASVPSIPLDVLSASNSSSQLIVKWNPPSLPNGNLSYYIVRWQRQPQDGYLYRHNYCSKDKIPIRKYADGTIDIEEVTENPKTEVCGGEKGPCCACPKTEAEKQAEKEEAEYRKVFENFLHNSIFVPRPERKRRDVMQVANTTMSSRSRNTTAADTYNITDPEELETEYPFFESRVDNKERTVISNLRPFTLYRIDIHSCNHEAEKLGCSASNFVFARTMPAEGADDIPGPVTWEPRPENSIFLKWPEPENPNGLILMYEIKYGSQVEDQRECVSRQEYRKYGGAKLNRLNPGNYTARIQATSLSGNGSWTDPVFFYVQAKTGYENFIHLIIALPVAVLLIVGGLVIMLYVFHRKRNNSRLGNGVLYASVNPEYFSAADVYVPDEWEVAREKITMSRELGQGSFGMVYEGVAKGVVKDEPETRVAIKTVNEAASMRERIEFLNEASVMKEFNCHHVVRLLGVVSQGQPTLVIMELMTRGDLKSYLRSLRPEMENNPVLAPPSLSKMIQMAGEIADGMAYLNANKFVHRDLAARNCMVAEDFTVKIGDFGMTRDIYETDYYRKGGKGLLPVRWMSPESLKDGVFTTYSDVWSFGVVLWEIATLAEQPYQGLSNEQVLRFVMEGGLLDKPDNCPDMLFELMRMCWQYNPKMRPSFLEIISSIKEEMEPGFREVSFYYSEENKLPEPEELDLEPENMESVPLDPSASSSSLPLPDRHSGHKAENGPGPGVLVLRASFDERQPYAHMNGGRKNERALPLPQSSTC
T6 sequence (P04626 23-1255): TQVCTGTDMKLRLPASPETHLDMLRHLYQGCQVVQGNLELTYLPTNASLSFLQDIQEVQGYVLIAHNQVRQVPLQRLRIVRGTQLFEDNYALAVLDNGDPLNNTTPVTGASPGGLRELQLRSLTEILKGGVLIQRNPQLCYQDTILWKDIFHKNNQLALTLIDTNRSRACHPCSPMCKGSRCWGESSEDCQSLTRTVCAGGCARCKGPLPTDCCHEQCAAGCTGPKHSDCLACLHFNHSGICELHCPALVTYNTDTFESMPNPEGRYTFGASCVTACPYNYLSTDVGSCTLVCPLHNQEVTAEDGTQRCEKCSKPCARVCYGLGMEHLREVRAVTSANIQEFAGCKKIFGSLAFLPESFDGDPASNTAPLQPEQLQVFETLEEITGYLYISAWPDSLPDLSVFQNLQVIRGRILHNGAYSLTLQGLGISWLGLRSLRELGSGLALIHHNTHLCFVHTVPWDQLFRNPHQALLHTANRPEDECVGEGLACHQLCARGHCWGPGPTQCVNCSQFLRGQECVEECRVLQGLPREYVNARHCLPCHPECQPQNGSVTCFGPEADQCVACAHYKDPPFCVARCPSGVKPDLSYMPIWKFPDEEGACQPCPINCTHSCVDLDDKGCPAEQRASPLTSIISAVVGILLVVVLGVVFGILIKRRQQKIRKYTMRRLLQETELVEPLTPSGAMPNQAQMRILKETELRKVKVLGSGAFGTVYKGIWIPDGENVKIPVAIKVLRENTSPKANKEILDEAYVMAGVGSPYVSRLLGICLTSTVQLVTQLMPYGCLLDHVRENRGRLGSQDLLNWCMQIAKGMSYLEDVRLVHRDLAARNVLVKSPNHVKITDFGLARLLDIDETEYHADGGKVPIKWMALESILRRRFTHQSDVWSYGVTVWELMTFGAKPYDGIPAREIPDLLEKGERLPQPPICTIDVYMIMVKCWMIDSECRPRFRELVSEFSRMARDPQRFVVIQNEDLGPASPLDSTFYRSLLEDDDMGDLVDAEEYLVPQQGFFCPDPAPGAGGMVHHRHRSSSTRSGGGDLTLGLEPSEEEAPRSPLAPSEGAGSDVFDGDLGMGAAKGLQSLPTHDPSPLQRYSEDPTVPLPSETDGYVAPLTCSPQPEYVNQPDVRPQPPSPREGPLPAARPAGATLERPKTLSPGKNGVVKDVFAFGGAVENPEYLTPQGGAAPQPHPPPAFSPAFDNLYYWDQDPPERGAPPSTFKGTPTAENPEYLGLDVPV

As to `CS(=O)(=O)CCNCc1ccc(-c2ccc3ncnc(Nc4ccc(OCc5cccc(F)c5)c(Cl)c4)c3c2)o1` [Lapatinib, reference compound], the 50% inhibitory concentration (IC50) in data set [1] was 10.9 ± 0.34 µM; in data set [2], 18.6 ± 2.65 µM; in [3], 9.62 ± 1.56 µM; in [4], 10.6 ± 1.02 µM; in data set [5] it was 27.1 ± 0.08 µM; in data set [11] it was 7.32 ± 2.15 µM. Moreover, the figures for the IC50 in data set [14] and in data set [15] (read-out: Antiproliferative activity (IC50) over the studied cell cultures) were 9.31 ± 0.9 µM and 2 to 27 µM, respectively. In addition, the inhibition at 10 µM in [6] was 2%; in data set [7], 0%; in [9], 10%; in data set [10], 100%; in data set [13] it was 0%; in data set [16], 76%. In addition, the “ROS Level, % of Control” value in data set [8] (K562, 5 µM) is 64.12 % of Control; in data set [8] (K562, 10 µM), 72.23 % of Control; in data set [8] (K562, 20 µM) it was 89.07 % of Control. Also, the “Apoptosis, % (cell cycle analysis)” value in data set [12] (K562, 1 µM) worked out at 14.74%; in data set [12] (K562, 5 µM), 28.92%. Also, the “G1, %” value came out at 34.47% in data set [12] (K562, 1 µM) and 31.31% in data set [12] (K562, 5 µM). For the same compound, the “G2/M, %” value in [12] (K562, 1 µM) was 52.23%; in data set [12] (K562, 5 µM), 55.68%. In addition, the “S, %” value in data set [12] (K562, 1 µM) is reported as 13.31%; in data set [12] (K562, 5 µM) it was 13.02%.

Turning to `Cc1cn(-c2cc(NC(=O)c3ccc(C(=O)Nc4cccc(C(F)(F)F)c4)cc3)cc(C(F)(F)F)c2)cn1` [Compound 17, N1-(3-(4-methyl-1H-imidazol-1-yl)-5-(trifluoromethyl)phenyl)-N4-(3-(trifluoromethyl)phenyl)-terephthalamide], the melting point was in the range of 208 to 210 °C. Moreover, the IC50 in data set [1] is above 50 µM. Besides, the half-inhibitory concentration (IC50) in [2] is above 50 µM. For the same compound, the IC50 in [3] came out at 15.6 µM. For the same compound, the IC50 in data set [4] was above 50 µM. For the same compound, at 10 µM the inhibition in data set [17] was 0%. For the same compound, the half-maximal inhibitory concentration (IC50) in data set [5] was above 50 µM. This compound also returned an inhibition at 10 µM in data set [6] of at most 20%. Moreover, in data set [7], the inhibition at 10 µM was found to be 0%. Further, the inhibition at 10 µM in [9] was 15%. The compound also returned an inhibition at 10 µM in data set [10] of 0%. Moreover, the IC50 in [11] was above 50 µM. This compound showed an inhibition at 10 µM in data set [13] of 0%. Besides, the IC50 in [14] is above 50 µM. Also, the “Antiproliferative activity (IC50) over the studied cell cultures” value in [15] is “practically did not affect the cell lines’ viability; also recorded: almost no effect on the cell lines’ viability”. This compound also gave an inhibition at 10 µM in data set [18] of 0%. The inhibition at 10 µM in data set [19] came out at 0%. In data set [16], this compound gave an inhibition at 10 µM of 13%. The compound further came in with an inhibition at 10 µM in [20] of 0%.
